Laboratory results reported in US7148244B2, “Medicines in controlling Vpr function” (Nippon Shinyaku Co. Ltd., priority 2001, dated 2006).

Legend:
FLAG-fused Vpr = molecular target: T1, FLAG-fused Vpr (Human immunodeficiency virus type 1 group M subtype B, UniProt P12520); experiment: In vitro direct binding of Vpr and compound; affinity precipitation with compound-immobilized Sepharose beads; parameters: species or system HIV
T1 construct: made in house; host or cells: TNT-coupled wheat germ extract in vitro transcription/translation (Promega), with 35S-methionine
Excerpt: A Vpr gene fused to N-terminal FLAG (SEQ ID NO:1) was obtained by PCR (polymerase chain reaction) using as a template pBT-1 (purchased from ATCC) into which the HIV genome without env had been incorporated. Primers utilized were synthetic DNAs having the following sequences (SEQ ID NOs:1 and 2). N-terminal FLAG: Asp Tyr Lys Asp Asp Asp Asp Lys (SEQ ID NO:1);
The DNA fragment of interest (300 bp) was recovered from PCR reaction products by agarose gel electrophoresis, and then cloned into the pGEM-T vector (Promega). This fragment was base analyzed on both plus and minus strands and was verified to correspond to the intended fused Vpr. The vector into which the Vpr gene fused to FLAG has been incorporated is hereinafter referred to as pGEM-T/Vpr-wt. […]
(§1) Preparation of FLAG-fused Vpr was performed by transcription and translation from the T7 promoter employing the TNT-coupled wheat germ extract in vitro transcription/translation system (wheat germ extract transcription/translation system) (Promega). […] Whether these products were Vpr was analyzed by carrying out western blotting according to typical procedures employing an anti-FLAG antibody after samples resulting from transcription and translation in the absence of the radiolabel were denatured with SDS (sodium dodecylsulfate). […]

FLAG-fused VprΔC = molecular target: T2, FLAG-fused VprΔC (Human immunodeficiency virus type 1 group M subtype B, UniProt P12520); experiment: as above; parameters: species or system HIV; details: FIG. 2 (2) lane 5
T2 construct: made in house; host or cells: TNT-coupled wheat germ extract in vitro transcription/translation (Promega), with 35S-methionine
Excerpt: The DNA fragment of interest (300 bp) was recovered from PCR reaction products by agarose gel electrophoresis, and then cloned into the pGEM-T vector (Promega). This fragment was base analyzed on both plus and minus strands and was verified to correspond to the intended fused Vpr. The vector into which the Vpr gene fused to FLAG has been incorporated is hereinafter referred to as pGEM-T/Vpr-wt. Furthermore, using this pGEM-T/Vpr-wt as a template, a second Vpr gene fused to FLAG in which a C-terminal region of Vpr (a.a. 73–96) was deleted was obtained by PCR utilizing primers shown below (SEQ ID Nos:4 and 5).
This fused gene was cloned into the pGEM-T vector as described above, and the resulting vector is hereinafter referred to as pGEM-T/VprΔC. […]
as §1

HeLa = experiment: In vitro functional antagonism between flavonoid (quercetin) and compound; microscopic observation of cell morphologies; format: cell-based
Description: Three types of cells were employed (HeLa, ECV304, and HBL-100, purchased from ATCC), and for each type, 1×10^5 cells were seeded in a 10 cm dish and cultured in D-MEM/F-12 medium (Gibco BRL) for 18–20 hours. On the next day, the medium was changed to the same medium containing 1.0 μM quercetin (Sigma; hereinafter abbreviated to QCT), followed by culturing for an additional 2 days. The compound A was then added at a concentration of 600 nM, and 72 hours later observations under a microscope were made of cell morphologies.

Vpr = Vpr (Human immunodeficiency virus type 1 group M subtype B, UniProt P12520); details: literature, Shimura M. et al. 1999; cited from earlier work
Sequence of Vpr (P12520 whole entry): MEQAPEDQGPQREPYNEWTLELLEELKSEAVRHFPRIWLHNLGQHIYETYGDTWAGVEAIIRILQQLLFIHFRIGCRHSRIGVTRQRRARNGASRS

T1 sequence (P12520 whole entry, the tested form may be a part): as the sequence (P12520 whole entry) above
T2 sequence (P12520 1-72, stated change not applied): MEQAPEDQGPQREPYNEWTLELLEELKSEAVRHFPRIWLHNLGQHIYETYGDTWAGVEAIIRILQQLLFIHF

| Structure (SMILES) | binding of radiolabeled FLAG-fused Vpr to compound-immobilized beads (FLAG-fused Vpr; affinity precipitation, FIG. 2 (2) lane 3) | region of Vpr to which the compound binds (FLAG-fused Vpr; concluded from binding to Vpr and no binding to VprΔC) | binding of radiolabeled FLAG-fused VprΔC (C-terminal a.a. 73–96 deleted) to compound-immobilized beads (FLAG-fused VprΔC) | effects of the compound after pre-treatment with quercetin (HeLa; HeLa cells, 1.0 μM quercetin for 48 hours, then compound 600 nM for 72 hours) | cell cycle state, cell morphology under a microscope (HeLa; HeLa cells, compound 600 nM alone, 72 hours, compared with the control group) | number of multinucleate cells having plural nuclei within single cells (HeLa; compound 600 nM alone, 72 hours, compared with the control group) | effect on Vpr functions (Vpr) |
| --- | --- | --- | --- | --- | --- | --- | --- |
| COc1ccc(S(=O)(=O)Nc2c(/C=C/c3ccncc3)cccc2OCCN)cc1 [compound B, (E)-4-[2-{3-(2-aminoethyloxy)-2-[N-(4-methoxybenzenesulfonyl)amino]phenyl}ethenyl]pyridine] | observed to bind | binds directly to the C-terminal region | not observed to bind | disappear almost completely | the cell cycle is arrested at the G2/M period | apparently increased |  |
| O=c1c(O)c(-c2ccc(O)c(O)c2)oc2cc(O)cc(O)c12 [quercetin] |  |  |  |  |  |  | inhibits Vpr functions |
